Test systems include SF-268 CNS; MDA-N; T-47D breast; OVCAR-8 ovarian; MDA-MB-231 breast; U251 CNS; HOP-62 NSCLC; MDA-MB-435; NCI/ADR-RES ovarian; MALME-3M melanoma.
What all share (assay): NCI anticancer screen, dose series, 48 h

Each structure is given as a SMILES string.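 Results reflect a 48-hour exposure of cells in 96-well plates to compound at five concentrations. TGI: total growth inhibition.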

In the case of `c1ccc2c(c1)SCCCS2`, the TGI with SF-268 CNS, in the experiment with MDA-N, with T-47D breast, in the experiment with OVCAR-8 ovarian, in the experiment on MDA-MB-231 breast and with U251 CNS was above 100 µM in each case. In addition, the TGI with HOP-62 NSCLC, in the experiment on MDA-MB-435 and in the experiment on NCI/ADR-RES ovarian was above 100 µM each time.

In the case of `O=c1c2c3c(sc2[nH]c(=S)n1-c1ccccc1)CCCc1ccc([N+](=O)[O-])cc1-3`, the TGI in the experiment on SF-268 CNS was above 100 µM; with MDA-N, above 100 µM; with T-47D breast it was 37.1 µM; in the experiment on OVCAR-8 ovarian it was above 100 µM; in the experiment with MDA-MB-231 breast, above 100 µM; in the experiment with U251 CNS, above 100 µM. Also, the TGI is above 100 µM in the experiment with HOP-62 NSCLC, above 100 µM with MALME-3M melanoma, above 100 µM in the experiment with MDA-MB-435 and 74 µM in the experiment on NCI/ADR-RES ovarian.

Take `C[C@@H]1CC[C@@]2(C)C(C(=O)O)=CCCC2[C@@]1(C)CC(=O)c1ccoc1` (some centres not stated): the TGI in the experiment with SF-268 CNS, with MDA-N, in the experiment on T-47D breast, with OVCAR-8 ovarian, with MDA-MB-231 breast and in the experiment with U251 CNS was above 25 µM each time. The TGI in the experiment with MDA-MB-435 and in the experiment on NCI/ADR-RES ovarian was above 25 µM in each case.

For the molecule `CC(C)NC(=O)OCc1c(COC(=O)NC(C)C)n(C)c2c1ccc1sccc12`, the TGI with SF-268 CNS is 21.5 µM; in the experiment with MDA-N it was 42.8 µM; in the experiment with T-47D breast, 47.2 µM; in the experiment on OVCAR-8 ovarian, above 100 µM; with MDA-MB-231 breast, 52 µM; with U251 CNS, above 60.8 µM. For the same molecule, the TGI with HOP-62 NSCLC was 46.4 µM; in the experiment on MALME-3M melanoma, 13.6 µM; in the experiment with MDA-MB-435, 35.1 µM; in the experiment with NCI/ADR-RES ovarian it was above 55.7 µM.

Take `O=C(ON=C1c2ccccc2C(Br)C(Br)c2ccccc21)c1ccccc1` (configuration not stated): the TGI with SF-268 CNS is 42.3 µM; with MDA-N it was 34.5 µM; with T-47D breast, 29.3 µM; with OVCAR-8 ovarian, 30.8 µM; with MDA-MB-231 breast it was 33.5 µM; in the experiment with U251 CNS, 31.6 µM. Further, the TGI is 17.3 µM with HOP-62 NSCLC, 37.1 µM with MALME-3M melanoma, 34.9 µM in the experiment on MDA-MB-435 and 51.4 µM in the experiment on NCI/ADR-RES ovarian.

As for `OCc1cn(Cc2ccccc2)c2ccccc12`, the TGI is 40.2 µM in the experiment with SF-268 CNS; above 65.5 µM in the experiment on MDA-N; 46.9 µM in the experiment on OVCAR-8 ovarian; 54.5 µM with MDA-MB-231 breast; 60.6 µM in the experiment with U251 CNS; above 100 µM with HOP-62 NSCLC. In addition, the TGI was 19.5 µM in the experiment with MALME-3M melanoma, above 64.7 µM with MDA-MB-435 and 42.4 µM with NCI/ADR-RES ovarian.

Regarding `CCOC1C=CC(=O)C(CO)O1` (configuration not stated), the TGI in the experiment on SF-268 CNS is 32.5 µM; in the experiment with MDA-N, 31.5 µM; in the experiment on T-47D breast, 24.9 µM; in the experiment on OVCAR-8 ovarian it was 26 µM; in the experiment with MDA-MB-231 breast, 32.1 µM; in the experiment with U251 CNS, 27.9 µM. Moreover, the TGI in the experiment with HOP-62 NSCLC is 28.4 µM; in the experiment with MALME-3M melanoma it was 25.8 µM; in the experiment on MDA-MB-435, 25.6 µM; in the experiment on NCI/ADR-RES ovarian, 33.2 µM.

As to `CC(=O)Nc1nc(Cl)cc(NCC2(CO)CCC2)n1`, the TGI with SF-268 CNS, in the experiment on MDA-N, in the experiment on T-47D breast, with OVCAR-8 ovarian, with MDA-MB-231 breast and in the experiment on U251 CNS was above 100 µM in each case. The TGI with HOP-62 NSCLC, in the experiment on MALME-3M melanoma, in the experiment with MDA-MB-435 and in the experiment on NCI/ADR-RES ovarian was above 100 µM throughout.

On to `CC1(C)CC(=O)C2=C(C1)C(c1ccccc1Cl)C1C(=O)CC(C)(C)CC1(O)O2` (configuration not stated), for which the TGI in the experiment with SF-268 CNS, in the experiment with MDA-N, in the experiment with T-47D breast, in the experiment on OVCAR-8 ovarian, with MDA-MB-231 breast and with U251 CNS was above 100 µM in each case. Moreover, the TGI is above 100 µM in the experiment on HOP-62 NSCLC, above 100 µM with MALME-3M melanoma, above 95.8 µM in the experiment with MDA-MB-435 and above 100 µM in the experiment with NCI/ADR-RES ovarian.

For the molecule `c1c[nH]c(-c2cccc3nsnc23)c1`, the TGI in the experiment with SF-268 CNS, with MDA-N, in the experiment on T-47D breast, in the experiment with OVCAR-8 ovarian, in the experiment with MDA-MB-231 breast and in the experiment with U251 CNS was above 100 µM each time. The TGI in the experiment on HOP-62 NSCLC, in the experiment with MALME-3M melanoma, with MDA-MB-435 and in the experiment on NCI/ADR-RES ovarian was above 100 µM in each case.

For `CCOC(=O)/C=C/c1nc(C#N)c(N)o1`, the TGI with SF-268 CNS, with MDA-N, in the experiment on OVCAR-8 ovarian, in the experiment on MDA-MB-231 breast, in the experiment with U251 CNS and with HOP-62 NSCLC was above 100 µM throughout. This molecule also yielded a TGI with MDA-MB-435 above 100 µM.

Regarding `CC(C)C(Br)CCC1=CCC(Br)(Br)C1` (configuration not stated), the TGI in the experiment with SF-268 CNS was determined as 31.2 µM; with MDA-N it was 10.4 µM; with MDA-MB-231 breast, 20.7 µM; in the experiment on U251 CNS, 28.8 µM; in the experiment on HOP-62 NSCLC, 30.8 µM; in the experiment on MALME-3M melanoma, 27.9 µM. The results for the TGI with MDA-MB-435 and in the experiment with NCI/ADR-RES ovarian were 22.5 µM and 62.1 µM, respectively.

Consider `Nc1ncnc2c1nnn2C1C=CC(CP(=O)(O)O)C1` (configuration not stated), for which the TGI in the experiment with SF-268 CNS, in the experiment on MDA-N, in the experiment on T-47D breast, with OVCAR-8 ovarian, with MDA-MB-231 breast and in the experiment on U251 CNS was above 100 µM throughout. Also, the TGI in the experiment with HOP-62 NSCLC, with MALME-3M melanoma and with NCI/ADR-RES ovarian was above 100 µM in each case.

For `CC(=O)O[C@@H](c1nccn1Cc1ccccc1)[C@H]1OC(C)(C)O[C@@H]1[C@H]1COC(C)(C)O1`, the TGI in the experiment with SF-268 CNS, in the experiment with MDA-N, with OVCAR-8 ovarian, with MDA-MB-231 breast, in the experiment with U251 CNS and in the experiment with HOP-62 NSCLC was above 100 µM throughout. Besides, the TGI in the experiment with MALME-3M melanoma, in the experiment with MDA-MB-435 and with NCI/ADR-RES ovarian was above 100 µM each time.

With `Cc1ccccc1-c1nc2c(N)nc(N)nc2nc1N`, the TGI in the experiment with SF-268 CNS, in the experiment with MDA-N, with OVCAR-8 ovarian, in the experiment with MDA-MB-231 breast, in the experiment with U251 CNS and with HOP-62 NSCLC was above 100 µM in each case. In addition, the TGI with MDA-MB-435 and in the experiment with NCI/ADR-RES ovarian was above 100 µM each time.

These data come from PubChem BioAssay (NCI).
